In US20240041042A1, “1-(PYRIDYL)-5-AZINYLPYRAZOLE DERIVATIVES, AND THEIR USE FOR CONTROL OF UNDESIRED PLANT GROWTH” (Bayer Aktiengesellschaft, priority 2020, published 2024):
Read-outs that look alike come from different tables or passages of the source.

Legend:
Format in all cases: in vivo
[1] = system: Zea mays (ZEAMX); conditions: for Post-emergence action against ZEAMX in % (crop plant compatibility): 20 g/ha, effect in comparison to untreated controls; for Post-emergence action against ZEAMX in %: crop plant compatibility, effect vs untreated controls
Summary of the method: (§1)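 Effects were read visually as % versus untreated controls (0% = no effect, 100% = death) about 3 weeks post-treatment. Application was a post-emergence spray at the one-leaf stage of WP/EC formulations with 0.5% additive at 600 l/ha. Different dosages are denoted a, b and c.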

[2] = system: Oryza sativa (ORYSA); conditions: crop plant compatibility
Summary of the method: as §1

[3] = system: Lolium rigidum (LOLRI); experiment: Pre-emergence herbicidal action against LOLRI
Summary of the method: (§2)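 Greenhouse pot trial: seeds sown, soil-covered, sprayed before emergence with compound in water (0.5% additive; 600 l/ha; ≤320 g/ha). Scoring visual, ~3 weeks, 0–100% scale vs untreated.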

[4] = system: Matricaria inodora (MATIN); experiment: Post-emergence herbicidal action against MATIN
Summary of the method: (§3)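 Rates were 320 g/ha or below, applied as aqueous WP/EC spray with 0.5% additive (600 l/ha) onto one-leaf-stage plants. About 3 weeks later in the greenhouse, damage was scored visually against untreated plants on a 0–100% scale, where 100% means plants died.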

[5] = system: Viola tricolor (VIOTR); experiment: Pre-emergence herbicidal action against VIOTR
Summary of the method: as §2

[6] = system: Setaria viridis (SETVI); experiment: Post-emergence herbicidal action against SETVI; conditions: dosage 80 g/ha
Summary of the method: as §3

[7] = system: Amaranthus retroflexus (AMARE); experiment: Pre-emergence herbicidal action against AMARE; conditions: visual scoring after about 3 weeks vs untreated controls
Summary of the method: as §2

[8] = system: Pharbitis purpurea (PHBPU); experiment: Post-emergence herbicidal action against PHBPU
Summary of the method: as §3

[9] = system: Alopecurus myosuroides (ALOMY); experiment: Post-emergence herbicidal action against ALOMY; conditions: visual rating about 3 weeks after treatment vs untreated controls (100% = plants have died, 0% = like control plants)
Summary of the method: as §3

[10] = system: Alopecurus myosuroides (ALOMY); experiment: Pre-emergence herbicidal action against ALOMY; conditions: 320 g/ha; scored visually after about 3 weeks; 100% = plants have died
Summary of the method: as §2

[11] = system: Echinochloa crus-galli (ECHCG); experiment: Post-emergence herbicidal action against ECHCG
Summary of the method: as §3

[12] = system: Verconica persica (VERPE); experiment: Pre-emergence herbicidal action against VERPE; conditions: dosage 320 g/ha
Summary of the method: as §2

[13] = system: Verconica persica (VERPE); experiment: Post-emergence herbicidal action against VERPE
Summary of the method: as §3

[14] = system: Abutilon theophrasti (ABUTH); experiment: Post-emergence herbicidal action against ABUTH; conditions: 80 g/ha, visual rating about 3 weeks after treatment vs untreated controls (100% = plants have died, 0% = like control plants)
Summary of the method: as §3

[15] = system: Abutilon theophrasti (ABUTH); experiment: Pre-emergence herbicidal action against ABUTH; conditions: Dosage column 320 g/ha (title prints 3200 g/ha); scored visually after about 3 weeks; 100% = plants have died
Summary of the method: as §2

[16] = system: Echinochloa crus-galli (ECHCG); experiment: Pre-emergence herbicidal action against ECHCG; conditions: dosage 320 g/ha
Summary of the method: as §2

[17] = system: Matricaria inodora (MATIN); experiment: Pre-emergence herbicidal action against MATIN
Summary of the method: as §2

[18] = system: Polygonum convolvulus (POLCO); experiment: Pre-emergence herbicidal action against POLCO
Summary of the method: as §2

[19] = system: Polygonum convolvulus (POLCO); experiment: Post-emergence herbicidal action against POLCO; conditions: dosage 80 g/ha
Summary of the method: as §3

[20] = system: Pharbitis purpurea (PHBPU); experiment: Pre-emergence herbicidal action against PHBPU
Summary of the method: as §2

[21] = system: Glycine max (GLXMA); conditions: pre-emergence, 80 g/ha, crop plant compatibility, in comparison to untreated controls
Summary of the method: (§4)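 Scoring: visual, % of untreated control, about 3 weeks after a pre-emergence application to the soil surface. Application used WP or EC formulations diluted in water with 0.5% additive at 600 l/ha; dosage levels are marked by suffixes a, b and c.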

[22] = system: Amaranthus retroflexus (AMARE); experiment: Post-emergence herbicidal action against AMARE
Summary of the method: as §3

[23] = system: Avena fatua (AVEFA); experiment: Pre-emergence herbicidal action against AVEFA; conditions: visual scoring after about 3 weeks vs untreated controls
Summary of the method: as §2

[24] = system: Setaria viridis (SETVI); experiment: Pre-emergence herbicidal action against SETVI; conditions: dosage 320 g/ha
Summary of the method: as §2

[25] = system: Avena fatua (AVEFA); experiment: Post-emergence herbicidal action against AVEFA; conditions: 80 g/ha, visual rating about 3 weeks after treatment
Summary of the method: as §3

[26] = system: Viola tricolor (VIOTR); experiment: Post-emergence herbicidal action against VIOTR; conditions: 320 g/ha
Summary of the method: as §3

[27] = system: Triticum aestivum (TRZAS); conditions: pre-emergence, crop plant compatibility, in comparison to untreated controls
Summary of the method: as §4

[28] = system: Digitaria sanguinalis (DIGSA); experiment: Pre-emergence herbicidal action against DIGSA; conditions: dosage 320 g/ha
Summary of the method: as §2

[29] = system: Triticum aestivum (TRZAS); conditions: crop plant compatibility, effect vs untreated controls
Summary of the method: as §1

[30] = system: Zea mays (ZEAMX); conditions: pre-emergence, crop plant compatibility, in comparison to untreated controls
Summary of the method: as §4

[31] = system: Oryza sativa (ORYSA); conditions: pre-emergence, crop plant compatibility, in comparison to untreated controls
Summary of the method: as §4

[32] = 20 g/ha, effect vs untreated controls
[33] = 80 g/ha, visual rating about 3 weeks after treatment vs untreated controls (100% = plants have died, 0% = like control plants)
[34] = 80 g/ha, effect in comparison to untreated controls

SMILES	Post-emergence action against ZEAMX in % (crop plant compatibility) [1]	Post-emergence action against ORYSA in % [2, 32]	Pre-emergence action against VIOTR in % ([5]; 320 g/ha, Viola tricolor)	Pre-emergence action against VIOTR in % ([5]; dosage 80 g/ha)	Pre-emergence action against AMARE in % ([7]; 320 g/ha)	Post-emergence action against PHBPU in % ([8]; dosage 80 g/ha)	Pre-emergence action against ALOMY [10]	Pre-emergence action against ECHCG in % [16]	Pre-emergence action against MATIN in % ([17]; dosage 320 g/ha)	Pre-emergence action against POLCO in % ([18]; dosage 320 g/ha)	Pre-emergence action against PHBPU in % ([20]; dosage 320 g/ha)	Pre-emergence action against GLXMA in % [21]	Post-emergence action against AMARE in % [22, 33]	Pre-emergence action against TRZAS in % ([27]; 80 g/ha)	Post-emergence action against ZEAMX in % ([1]; 80 g/ha)	Post-emergence action against ORYSA in % [2, 34]	Pre-emergence action against ZEAMX in % ([30]; 80 g/ha)	Pre-emergence action against ZEAMX in % ([30]; 320 g/ha)	Pre-emergence action against ORYSA in % ([31]; 80 g/ha)	Pre-emergence action against ORYSA in % ([31]; 320 g/ha)	further results
COC(=O)CCOC(=O)COc1nn(-c2ccccn2)c(-c2cncc(F)c2)c1Br [Example I-77]	0%	0%	100%	90%	100%	90%	90%	100%	90%	90%	90%	0%	80%								Pre-emergence action against LOLRI in % ([3]; dosage 80 g/ha): 90%; Pre-emergence action against LOLRI in % ([3]; dosage 320 g/ha): 100%; Post-emergence action against MATIN in % ([4]; dosage 80 g/ha): 90%; Post-emergence action against SETVI in % [6]: 80%; Pre-emergence action against AMARE in % ([7]; 80 g/ha): 90%; Post-emergence action against ALOMY in % ([9]; 80 g/ha): 90%; Post-emergence action against ECHCG in % ([11]; dosage 80 g/ha): 90%; Pre-emergence action against VERPE in % [12]: 90%; Post-emergence action against VERPE in % ([13]; dosage 80 g/ha): 90%; Post-emergence action against ABUTH in % [14]: 80%; Pre-emergence action against ABUTH [15]: 80%; Pre-emergence action against MATIN in % ([17]; dosage 80 g/ha): 80%; Post-emergence action against POLCO in % [19]: 80%; Pre-emergence action against PHBPU in % ([20]; dosage 80 g/ha): 80%; Pre-emergence action against AVEFA in % ([23]; 80 g/ha): 80%; Pre-emergence action against AVEFA in % ([23]; 320 g/ha): 90%; Pre-emergence action against SETVI in % [24]: 100%; Post-emergence action against AVEFA in % [25]: 90%
COC(=O)COc1nn(-c2ncccc2C(F)(F)F)c(-c2cncc(F)c2)c1Br [Example I-206]			100%	90%	90%		80%	80%	90%	80%	80%	10%		0%							Post-emergence action against MATIN in % ([4]; dosage 320 g/ha): 80%; Post-emergence action against PHBPU in % ([8]; dosage 320 g/ha): 90%; Post-emergence action against ALOMY in % ([9]; 320 g/ha): 80%; Post-emergence action against ECHCG in % ([11]; dosage 320 g/ha): 80%; Post-emergence action against VERPE in % ([13]; 320 g/ha, VERPE): 80%; Pre-emergence action against POLCO in % ([18]; dosage 80 g/ha): 80%; Post-emergence action against VIOTR in % [26]: 80%; Pre-emergence action against DIGSA in % [28]: 90%
O=C(O)COc1nn(-c2ccncc2)c(-c2ccc(F)nc2)c1Br [III-09]			80%		80%							20%		0%	10%	0%	0%	0%	0%	0%	Post-emergence action against TRZAS in % ([29]; 80 g/ha): 0%; Post-emergence action against TRZAS in % ([29]; 320 g/ha): 0%; Post-emergence action against ZEAMX in % ([1]; 320 g/ha): 10%; Post-emergence action against ORYSA in % ([2]; 320 g/ha, effect in comparison to untreated controls): 0%; Pre-emergence action against TRZAS in % ([27]; 320 g/ha): 0%; Post-emergence action against AMARE in % ([22]; 320 g/ha, visual rating about 3 weeks after treatment): 80%
COC(=O)[C@H](C)COC(=O)COc1nn(-c2ccnc(Cl)c2)c(-c2ccc(F)nc2)c1Br [III-17]	20%	0%			90%	80%						0%	80%	0%	20%	0%	20%	20%	0%	10%	Post-emergence action against TRZAS in % ([29]; 20 g/ha): 20%
